This assay concerns the target T1, hOX2R (Homo sapiens, UniProt O43614).
T1 construct: expressed in transfected cells; host or cells: CHO cells (G418 selection)
T1 sequence (O43614 1-444): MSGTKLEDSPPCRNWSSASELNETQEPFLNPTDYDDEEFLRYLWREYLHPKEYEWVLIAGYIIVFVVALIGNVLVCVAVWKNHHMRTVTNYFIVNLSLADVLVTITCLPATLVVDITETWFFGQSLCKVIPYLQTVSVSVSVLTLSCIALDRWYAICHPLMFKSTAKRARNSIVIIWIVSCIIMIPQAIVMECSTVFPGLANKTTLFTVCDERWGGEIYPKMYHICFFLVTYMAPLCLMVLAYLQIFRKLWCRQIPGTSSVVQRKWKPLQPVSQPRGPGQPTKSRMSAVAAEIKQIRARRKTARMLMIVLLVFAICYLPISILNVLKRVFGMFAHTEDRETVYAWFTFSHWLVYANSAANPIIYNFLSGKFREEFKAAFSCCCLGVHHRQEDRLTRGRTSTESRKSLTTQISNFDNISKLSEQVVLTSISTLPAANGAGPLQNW
Description: hOX2R IPone assay (orexin receptor agonism). The format is cell-based. Conditions: IPone readout; for hOX2R_Ipone max %act: maximal activation; for EC50: orexin receptor agonist, read-out: hOX2R_IPone EC50.

Turning to `CCN1C(=O)NC(CCC(F)F)CCCCCOc2nc(cn3ccnc23)-c2cc(ncc2C2CC2)[C@H]1C` (stereo partly drawn) [Example 197, (3R,E)-25-cyclopropyl-7-(3,3-difluoropropyl)-4-ethyl-3-methyl-13-oxa-4,6-diaza-1(6,8)-imidazo[1,2-a]pyrazina-2(4,2)-pyridina-cyclotridecaphan-5-one], the hOX2R_Ipone max %act turned out to be 105.4% and the EC50 was 1.3 nM.
The like results for `CCN1C(=O)N[C@@H](CCC(F)(F)F)CCS(=O)(=O)CCOc2nc(cn3ncnc23)-c2cc(ncc2OC)[C@H]1C` [Example 135, (3R,7S,E)-4-ethyl-25-methoxy-3-methyl-7-(3,3,3-trifluoropropyl)-13-oxa-10-thia-4,6-diaza-1(6,8)-[1,2,4]triazolo[1,5-a]pyrazina-2(4,2)-pyridinacyclotridecaphan-5-one 10,10-dioxide] were, in that order, 93.31% and 170 nM.
Turning to `CCN1C(=O)NC(CCOC(F)(F)F)CCCCCOc2nc(cn3ccnc23)-c2cc(ncc2OC)[C@H]1C` (single isomer, unassigned) [Example 73B], the hOX2R_Ipone max %act is 99.6% and the EC50 is 0.8 nM.
The like results for `CCN1C(=O)NCCCCCOc2nc(cn3ccnc23)-c2cccc(c2)[C@H]1C` [Example 49, (12R)-13-ethyl-12-methyl-12,13,15,16,17,18,19,20-octahydro-14H-6,22-(azeno)-11,7-(metheno)imidazo[2,1-c][1,4,13,15]oxatriaza-cycloicosin-14-one] were, in that order, 74.7% and 42 nM.
The like results for `CCN1C(=O)NC(C)CCCCCOc2nc(cn3ccnc23)-c2cccc(c2)[C@H]1C` (mixture of isomers) [Example 18, (12R)-13-ethyl-12,16-dimethyl-12,13,16,17,18,19, 20,21-octahydro-6,23-(azeno)-11,7-(metheno) imidazo[2,1-c][1,4,13,15]oxatriaza-cyclohenicosin-14(15H)-one] were, in that order, 98.6% and 26.6 nM.
The like results for `CCN1C(=O)NC(CC2CCC2)CCCCCOc2nc(cn3ccnc23)-c2cc(ncc2OC)[C@H]1C` (single isomer, unassigned) [Example 61B] were, in that order, 100.9% and 1.3 nM.
Take `CCN1C(=O)NC(CCC(F)(F)F)COCCCOc2nc(cn3ccnc23)-c2cc(ncc2OC)[C@H]1C` (single isomer, unassigned) [Example 21B]: the hOX2R_Ipone max %act came out at 100.3% and the EC50 was determined as 0.5 nM.
The like results for `CCN1C(=O)N[C@@H](CCC(F)(F)F)CCCCCOc2nc(cn3c(C)cnc23)-c2cc(nc3ccoc23)C1C` (single isomer, unassigned) [Example 76A] were, in that order, 98.9% and 204 nM.
The like results for `CCN1C(=O)NC(CCC(C)F)CCCCCOc2nc(cn3ccnc23)-c2cc(ncc2OC)[C@H]1C` (single isomer, unassigned) [Example 72A] were, in that order, 99.5% and 5.6 nM.
The like results for `CCN1C(=O)NC(CCC(F)(F)F)CCC(F)(F)CCOc2nc(cn3ccnc23)-c2cc(ncc2OC)[C@H]1C` (single isomer, unassigned) [Example 121B] were, in that order, 100.7% and 0.5 nM.
As to `CCN1C(=O)N[C@@H](CCC(F)(F)F)CCCCOc2nc(cn3cc(C)nc23)-c2cc(ncc2OC)C1C(F)(F)F` (single isomer, unassigned) [Example 36B], the hOX2R_Ipone max %act worked out at 101.5% and the EC50 was 8.9 nM.
The like results for `CCN1C(=O)N[C@@H](C(F)(F)F)CCCCOc2nc(cn3ncnc23)-c2cc(ncc2OC)C1C(F)(F)F` (stereo partly drawn) [Example 37, (16R)-13-ethyl-8-methoxy-12,16-bis(trifluoromethyl)-12,13,15,16,17,18,19,20-octahydro-14H-6,22-(azeno)-11,7-(metheno) [1,2,4]triazolo[5,1-c][1,4,10,13,15]oxatetra-azacycloicosin-14-one] were, in that order, 77.3% and 3010 nM.
The like results for `CCN1C(=O)NC(CCC(F)(F)F)CCCCCOc2cc(n3nccc3c2)-c2ccnc(c2)C1C` [Example 156, (3R,7R,E)-4-ethyl-3-methyl-7-(3,3,3-trifluoropropyl)-13-oxa-4,6-diaza-1(5,7)-pyrazolo[1,5-a]pyridina-2(4,2)-pyridinacyclotridecaphan-5-one] were, in that order, 100.3% and 1.32 nM.
The like results for `CCN1C(=O)NC(CC2CC2(F)F)CCCCCOc2nc(cn3ccnc23)-c2cc(ncc2OC)[C@H]1C` (single isomer, unassigned) [Example 59D] were, in that order, 100.9% and 0.9 nM.
As to `CCN1C(=O)N[C@@H](CC(F)(F)F)CCCCCOc2nc(cn3ccnc23)-c2ccnc(c2)[C@H]1C` [Example 103, (12R,16R)-13-ethyl-12-methyl-16-(2,2,2-trifluoroethyl)-12,13,16,17,18,19,20, 21-octahydro-6,23-(azeno)-11,7-(metheno)imidazo[2,1-c][1,4,10,13,15] oxatetraazacycloheni-cosin-14(15H)-one], the hOX2R_Ipone max %act stood at 100.8% and the EC50 is 13.1 nM.
The like results for `CCN1C(=O)NCCCCCCOc2nc(cn3ccnc23)-c2cccc(c2)[C@H]1C` [Example 12, (12R)-13-ethyl-12-methyl-12,13,16,17,18,19, 20,21-octahydro-6,23-(azeno)-11,7-(metheno) imidazo[2,1-c][1,4,13,15]oxa-triazacyclohenicosin-14(15H)-one] were, in that order, 99.76% and 20.3 nM.
In the case of `CCN1C(=O)N[C@@H](CCC(F)(F)F)CCCCCOc2nc(cn3ccnc23)-c2cnnc(c2)[C@H]1C` [Example 159, (3R,7R,E)-4-ethyl-3-methyl-7-(3,3,3-trifluoropropyl)-13-oxa-4,6-diaza-1(6,8)-imidazo[1,2-a]pyrazina-2(5,3)-pyridazinacyclotridecaphan-5-one], the hOX2R_Ipone max %act was 72.77% and the EC50 worked out at 541 nM.
On to `CCN1C(=O)N[C@@H](CC(F)(F)F)CCCCCOc2nc(cn3ccnc23)-c2cc(ncc2OC)[C@H]1C` [Example 114, (12R,16R)-13-ethyl-8-methoxy-12-methyl-16-(2,2,2-trifluoroethyl)-12,13,16,17,18,19,20,21-octahydro-6,23-(azeno)-11,7-(metheno)imidazo[2,1-c][1,4,10,13,15]oxatetraazacyclohenicosin-14(15H)-one], for which the hOX2R_Ipone max %act is 100.9% and the EC50 was 0.7 nM.
As for `CCN1C(=O)N[C@@H](CCC(F)(F)F)CCCCCOc2nc(cn3ccnc23)-c2cc(ncc2OC)[C@H]1C` [Example 111, (3R,7R,E)-4-ethyl-25-methoxy-3-methyl-7-(3,3,3-trifluoropropyl)-13-oxa-4,6-diaza-1(6,8)-imidazo[1,2-a]pyrazina-2(4,2)-pyridinacyclotridecaphan-5-one], the hOX2R_Ipone max %act was 100.7% and the EC50 is 1.4 nM.
Take `CCN1C(=O)NCCCCCOc2nc(cn3ncnc23)-c2cc(ncc2OC)C1C(F)(F)F` (stereo not shown) [Example 35, 13-ethyl-8-methoxy-12-(trifluoromethyl)-12,13,15,16,17,18,19,20-octahydro-14H-6,22-(azeno)-11,7-(metheno) [1,2,4]triazolo[5,1-c][1,4,10,13,15]oxatetra-azacycloicosin-14-one]: the hOX2R_Ipone max %act turned out to be 82.8% and the EC50 was 4710 nM.

In general, EC50 refers to the concentration at which the effect is half-maximal.

Values taken from patent US12686690B2, “Macrocyclic urea orexin receptor agonists” (Merck Sharp & Dohme LLC, priority 2020, dated 2026).
